In PMC12120022, “Discovery and chemical optimisation of a potent, Bi-cyclic antimicrobial inhibitor of Escherichia coli PBP3” (Communications Biology, 2025):
Where a SMILES comes first, the peptide text is derived from it.

Assays:
[1] = biological target: T1, EcPBP3 (Escherichia coli, UniProt P0AD68); assay: Fluorescence polarisation competition assay with fluorescent Bicycle tracer (tracer 1 / BCY12820); format: binding; conditions: protein 9.4 nM sets sensitivity limit, top concentration 5 µM, read-out: Ki (nM) by fluorescence polarisation with tracer 1 (BCY12820 as tracer), Geometric mean (Lower 95% CI; Upper 95% CI, n=number of values)
T1 construct: For assays, selections and SPR a construct with residues 60–588 which has the N-terminal domain, but not the transmembrane helix, was used; made in house
How it was run: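 Unlabelled peptide competes with fluorescent Bicycle tracer (1 nM, as added) for EcPBP3 (9.4 nM, as added) in 10 mM HEPES, 2% glycerol, 300 mM NaCl, pH 8.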

[2] = biological target: T1, EcPBP3; assay: SPR binding assay on immobilised EcPBP3; conditions: 37 °C, kinetic fitting, NB = no binding at 2500 nM (Tables S-4, S-5) or 5000 nM (Table 1); for Kd: read-out: Kd (nM) by SPR (geomean)
Description: Surface plasmon resonance (SPR) assays were performed using EcPBP3 immobilized on CM5 sensor chips (GE Healthcare) via amine-coupling chemistry in assay buffer (10 mM HEPES pH 8.0, 200 mM NaCl, 0.05% (v/v) surfactant P20). The chip surface was activated by injection (10 μL min^–1) of 0.4 M EDC and 0.1 M NHS (in a 1:1 ratio) with a 7 min contact time. Protein was diluted to 25 μg mL^–1 in 10 mM MOPS (pH 7.0) and injected over the activated sensor chip surface to reach immobilization of 1500-2500 response units. Excess hydroxysuccinimidyl groups on the chip surface were deactivated by injection (10 μL min^–1) of 1 M ethanolamine hydrochloride pH 8.0 with a 7 min contact time. Reference flow cells were prepared as described, but without ligand (EcPBP3 protein).
Binding analysis runs were performed at 37 °C in running buffer (10 mM HEPES pH 8.0, 200 mM NaCl, 0.05% (w/v) Tween-20, 2% (v/v) DMSO). Test compounds (and control runs of buffer only) were injected in running buffer over the EcPBP3 chip and reference flow cell, at flow rate of 50 μL min^–1 for 150 s contact time and 2400 s dissociation time. Each injection was followed by a wash with 50% (v/v) DMSO. All compounds were tested in at least two independent biological replicates unless otherwise stated.
Raw sensorgrams data were solvent-corrected, reference-subtracted and blank-buffer-subtracted (double-referencing) before kinetic and affinity analysis to account for non-specific binding and injection artifacts. Equilibrium dissociation constant (Kd) values was determined using the Biacore™ Insight Evaluation Software (version 4.0.8 or version 5.0.17) using kinetic fitting. Kd values presented are the geometric mean of at least two biological replicates.

T1 sequence (P0AD68 60-588): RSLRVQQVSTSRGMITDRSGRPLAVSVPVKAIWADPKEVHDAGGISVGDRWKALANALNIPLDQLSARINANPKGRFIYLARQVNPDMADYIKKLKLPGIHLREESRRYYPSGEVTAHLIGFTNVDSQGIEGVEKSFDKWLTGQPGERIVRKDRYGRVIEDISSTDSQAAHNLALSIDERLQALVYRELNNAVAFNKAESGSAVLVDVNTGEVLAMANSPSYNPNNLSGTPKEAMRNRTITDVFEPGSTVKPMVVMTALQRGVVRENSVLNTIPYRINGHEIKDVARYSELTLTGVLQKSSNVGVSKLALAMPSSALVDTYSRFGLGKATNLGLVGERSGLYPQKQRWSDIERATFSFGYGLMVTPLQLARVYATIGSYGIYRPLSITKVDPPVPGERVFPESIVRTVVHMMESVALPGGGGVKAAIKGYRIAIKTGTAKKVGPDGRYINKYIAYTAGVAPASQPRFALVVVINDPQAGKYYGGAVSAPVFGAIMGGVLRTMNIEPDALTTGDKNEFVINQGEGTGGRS

SMILES	Ki [1] [nM]	Kd [2] [nM]	Kd (nM) by SPR (geomean) [2]
CC(C)[C@@H]1NC(=O)[C@H](Cc2c[nH]c3ccccc23)NC(=O)[C@@H]2CCCN2C(=O)[C@@H]2CSCCC(=O)N3CN(CN(C3)C(=O)CCSC[C@@H](C(=O)N[C@@H](C)C(N)=O)NC(=O)[C@H](Cc3ccc(O)cc3)NC(=O)[C@H](CCC(=O)O)NC1=O)C(=O)CCSC[C@H](NC(=O)[C@H](C)N)C(=O)N[C@@H](CO)C(=O)N[C@@H](Cc1ccccc1)C(=O)N1CCC[C@H]1C(=O)N[C@@H](CCCCNC(=N)N)C(=O)N2 [Peptide 51] (HELM PEPTIDE1{A.C.S.F.P.[N=C(N)NCCCC[C@H](N[*:1])C(=O)[*:2]].C.P.W.V.E.Y.C.A.[am]}|CHEM1{[O=C(CC[*:1])N1CN(C(=O)CC[*:2])CN(C(=O)CC[*:3])C1]}$PEPTIDE1,CHEM1,2:R3-1:R1|PEPTIDE1,CHEM1,7:R3-1:R2|PEPTIDE1,CHEM1,13:R3-1:R3$$$V2.0)	< 9	1.83	
CC(C)[C@@H]1NC(=O)[C@H](Cc2c[nH]c3ccccc23)NC(=O)[C@@H]2CCCN2C(=O)[C@@H]2CSCCC(=O)N3CN(CN(C3)C(=O)CCSC[C@H](NC(=O)[C@H](C)N)C(=O)N[C@@H](CO)C(=O)N[C@@H](Cc3ccccc3)C(=O)N3CCC[C@H]3C(=O)N[C@@H](C)C(=O)N2)C(=O)CCSC[C@@H](C(=O)N[C@@H](C)C(N)=O)NC(=O)CNC(=O)[C@H](CCC(=O)O)NC1=O [Peptide 19]	< 9	12.4	
C[C@H](N)C(=O)N[C@H]1CSCCC(=O)N2CN3CN(C2)C(=O)CCSC[C@H](NC(=O)[C@H](CCCCN)NC(=O)[C@@H]2CCCN2C(=O)[C@H](Cc2ccccc2)NC(=O)[C@H](CO)NC1=O)C(=O)N1CCC[C@H]1C(=O)N[C@@H](Cc1c[nH]c2ccccc12)C(=O)N[C@@H](C)C(=O)N[C@@H](CCC(=O)O)C(=O)NCC(=O)N[C@H](C(=O)N[C@@H](C)C(N)=O)CSCCC3=O [Peptide 22] (HELM PEPTIDE1{A.C.S.F.P.K.C.P.W.A.E.G.C.A.[am]}|CHEM1{[O=C(CC[*:1])N1CN(C(=O)CC[*:2])CN(C(=O)CC[*:3])C1]}$PEPTIDE1,CHEM1,2:R3-1:R1|PEPTIDE1,CHEM1,7:R3-1:R2|PEPTIDE1,CHEM1,13:R3-1:R3$$$V2.0)	> 5000	669	
CC(C)[C@@H]1NC(=O)[C@H](Cc2c[nH]c3ccccc23)NC(=O)[C@@H]2CCCN2C(=O)[C@@H]2CSCCC(=O)N3CN(CN(C3)C(=O)CCSC[C@H](NC(=O)[C@H](C)N)C(=O)N[C@@H](C)C(=O)N[C@@H](Cc3ccccc3)C(=O)N3CCC[C@H]3C(=O)N[C@@H](CCCCN)C(=O)N2)C(=O)CCSC[C@@H](C(=O)N[C@@H](C)C(N)=O)NC(=O)CNC(=O)[C@H](CCC(=O)O)NC1=O [Peptide 16] (HELM PEPTIDE1{A.C.A.F.P.K.C.P.W.V.E.G.C.A.[am]}|CHEM1{[O=C(CC[*:1])N1CN(C(=O)CC[*:2])CN(C(=O)CC[*:3])C1]}$PEPTIDE1,CHEM1,2:R3-1:R1|PEPTIDE1,CHEM1,7:R3-1:R2|PEPTIDE1,CHEM1,13:R3-1:R3$$$V2.0)	< 9	6.44	
CC(C)C[C@@H]1NC(=O)[C@@H](NC(=O)[C@H](C)N)CSCCC(=O)N2CN3CN(C2)C(=O)CCSC[C@H](NC(=O)[C@H](CCCCNC(=N)N)NC(=O)[C@@H]2CCCN2C(=O)[C@H](Cc2ccccc2)NC1=O)C(=O)N1CCC[C@H]1C(=O)N[C@@H](Cc1c[nH]c2ccccc12)C(=O)N[C@@H](C(C)C)C(=O)N[C@@H](CCC(=O)O)C(=O)NCC(=O)N[C@H](C(=O)N[C@@H](C)C(N)=O)CSCCC3=O [Peptide 27] (HELM PEPTIDE1{A.C.L.F.P.[N=C(N)NCCCC[C@H](N[*:1])C(=O)[*:2]].C.P.W.V.E.G.C.A.[am]}|CHEM1{[O=C(CC[*:1])N1CN(C(=O)CC[*:2])CN(C(=O)CC[*:3])C1]}$PEPTIDE1,CHEM1,2:R3-1:R1|PEPTIDE1,CHEM1,7:R3-1:R2|PEPTIDE1,CHEM1,13:R3-1:R3$$$V2.0)	< 9	3.36	
CC(C)[C@@H]1NC(=O)[C@H](C)NC(=O)[C@@H]2CCCN2C(=O)[C@@H]2CSCCC(=O)N3CN(CN(C3)C(=O)CCSC[C@H](NC(=O)[C@H](C)N)C(=O)N[C@@H](CO)C(=O)N[C@@H](Cc3ccccc3)C(=O)N3CCC[C@H]3C(=O)N[C@@H](CCCCN)C(=O)N2)C(=O)CCSC[C@@H](C(=O)N[C@@H](C)C(N)=O)NC(=O)CNC(=O)[C@H](CCC(=O)O)NC1=O [Peptide 21] (HELM PEPTIDE1{A.C.S.F.P.K.C.P.A.V.E.G.C.A.[am]}|CHEM1{[O=C(CC[*:1])N1CN(C(=O)CC[*:2])CN(C(=O)CC[*:3])C1]}$PEPTIDE1,CHEM1,2:R3-1:R1|PEPTIDE1,CHEM1,7:R3-1:R2|PEPTIDE1,CHEM1,13:R3-1:R3$$$V2.0)	> 5000	> 2500	
CC(C)[C@@H]1NC(=O)[C@H](Cc2c[nH]c3ccccc23)NC(=O)[C@@H]2CCCN2C(=O)[C@@H]2CSCCC(=O)N3CN(CN(C3)C(=O)CCSC[C@H](NC(=O)[C@H](C)N)C(=O)N[C@@H](CO)C(=O)N[C@@H](Cc3ccccc3)C(=O)N3CCC[C@H]3C(=O)N[C@@H](CCCCN)C(=O)N2)C(=O)CCSC[C@@H](C(=O)N[C@@H](C)C(N)=O)NC(=O)CNC(=O)[C@H](C)NC1=O [Peptide 23]	9.08	6.71	
CC(C)[C@@H]1NC(=O)[C@H](Cc2c[nH]c3ccccc23)NC(=O)[C@@H]2CCCN2C(=O)[C@@H]2CSCCC(=O)N3CN(CN(C3)C(=O)CCSC[C@H](NC(=O)[C@H](C)N)C(=O)N[C@@H](CO)C(=O)N[C@@H](Cc3ccccc3)C(=O)N[C@@H](C)C(=O)N[C@@H](CCCCN)C(=O)N2)C(=O)CCSC[C@@H](C(=O)N[C@@H](C)C(N)=O)NC(=O)CNC(=O)[C@H](CCC(=O)O)NC1=O [Peptide 18]	76.9	178	
CC(C)[C@@H]1NC(=O)[C@H](Cc2c[nH]c3ccccc23)NC(=O)[C@@H]2CCCN2C(=O)[C@@H]2CSCCC(=O)N3CN(CN(C3)C(=O)CCSC[C@H](NC(=O)[C@H](C)N)C(=O)N[C@@H](Cc3ccccc3)C(=O)N[C@@H](Cc3ccccc3)C(=O)N3CCC[C@H]3C(=O)N[C@@H](CCCCNC(=N)N)C(=O)N2)C(=O)CCSC[C@@H](C(=O)N[C@@H](C)C(N)=O)NC(=O)CNC(=O)[C@H](CCC(=O)O)NC1=O [Peptide 28] (HELM PEPTIDE1{A.C.F.F.P.[N=C(N)NCCCC[C@H](N[*:1])C(=O)[*:2]].C.P.W.V.E.G.C.A.[am]}|CHEM1{[O=C(CC[*:1])N1CN(C(=O)CC[*:2])CN(C(=O)CC[*:3])C1]}$PEPTIDE1,CHEM1,2:R3-1:R1|PEPTIDE1,CHEM1,7:R3-1:R2|PEPTIDE1,CHEM1,13:R3-1:R3$$$V2.0)	< 9	1.12	
CC(C)[C@@H]1NC(=O)[C@H](Cc2c[nH]c3ccccc23)NC(=O)[C@@H]2CCCN2C(=O)[C@@H]2CSCCC(=O)N3CN(CN(C3)C(=O)CCSC[C@@H](C(=O)N[C@@H](C)C(N)=O)NC(=O)[C@H](C)NC(=O)[C@H](CCC(=O)O)NC1=O)C(=O)CCSC[C@H](NC(=O)[C@H](C)N)C(=O)N[C@@H](CO)C(=O)N[C@@H](Cc1ccccc1)C(=O)N1CCC[C@H]1C(=O)N[C@@H](CCCCN)C(=O)N2 [Peptide 24]	25.5	24.4	
CC(C)[C@@H]1NC(=O)[C@H](Cc2c[nH]c3ccccc23)NC(=O)[C@@H]2CCCN2C(=O)[C@@H]2CSCCC(=O)N3CN(CN(C3)C(=O)CCSC[C@H](NC(=O)[C@H](C)N)C(=O)N[C@@H](CO)C(=O)N[C@@H](Cc3ccccc3)C(=O)N3CCC[C@H]3C(=O)N[C@@H](CCCCNC(=N)N)C(=O)N2)C(=O)CCSC[C@@H](C(=O)N[C@@H](C)C(N)=O)NC(=O)CNC(=O)[C@H](CCC(=O)O)NC1=O [Peptide 25]	< 9	2.85	no loss in binding or MIC
